Data: patent publication US12404289B2 (Gilead Sciences, Inc., priority 2020, dated 2025)
Where two headings read alike, the source gives them in different places.

Legend:
Assay type in all cases: cell-based
SARS-CoV-2 = SARS-CoV-2 antiviral assay (A549-hACE2, Nano luciferase); settings: A549-hACE2 cells, SARS-CoV2-Nano, MOI 0.025, 48 h, Table 4, read-out: EC50 SARS CoV2
[1] = system: Respiratory syncytial virus recombinant with luciferase (RSV-Luc5); assay: microbe, parasite or virus in culture
[2] = system: Recombinant respiratory syncytial virus expressing the firefly luciferase protein (RSV-Fluc); assay: microbe, parasite or virus in culture; settings: Table 4
[3] = system: Respiratory syncytial virus (RSV) strain A2; assay: Hep-2 RSV2 384-well assay (EC50-HEP2-384); settings: HEp-2 cells, RSV A2, MOI=4, 4 days
[4] = system: Respiratory syncytial virus (RSV) strain A2; assay: RSV antiviral assay (HEp-2, 96 well); settings: Table 3
[5] = Severe acute respiratory syndrome coronavirus 2, 48 h
[6] = human respiratory syncytial virus, HEp-2, 72 h, read-out: EC50 RSVFluc-Hep2 384, HEp-2 cells, RSV-Luc5, MOI=0.5, 3 days, 384 well, Table 3
[7] = human respiratory syncytial virus, NHBE, 72 h, read-out: EC50 RSVFluc NHBE 96, NHBE cells, RSV-Fluc, MOI of 0.1, three days, 96 well
[8] = human respiratory syncytial virus, HEp-2, 96 h, Table 3
[9] = read-out: EC50 RSV HEP2 96, HEp-2 cells, RSV A2, MOI=4, 4 days, 96 well
[10] = read-out: EC50 RSVFluc-Hep2 384, HEp-2 cells, RSV-Luc5, MOI=0.5, 3 days, 384 well, Table 3
[11] = read-out: EC50 RSVFluc NHBE 96, NHBE cells, RSV-Fluc, MOI of 0.1, three days, 96 well

SMILES | EC50 (SARS-CoV-2; [5]) [nM] | EC50 [1, 6] [nM] | EC50 [2, 7] [nM] | EC50 (SARS-CoV-2) [nM] | EC50 [1, 10] [nM] | further results
C[C@H](NP(=O)(OC[C@H]1O[C@@](C#N)(c2ccc3c(N)ncnn23)[C@H](O)[C@@H]1O)Oc1ccccc1)C(=O)OC1CC2(CCC2)C1 (stereo partly drawn) [Example 44, spiro[3.3]heptan-2-yl ((((2R,3S,4R,5R)-5-(4-aminopyrrolo[2,1-f][1,2,4]triazin-7-yl)-5-cyano-3,4-dihydroxytetrahydrofuran-2-yl)methoxy)(phenoxy)phosphoryl)-L-alaninate] | 104 | 18.3 | 9.47 | – | – | EC50 [3, 8]: 56 nM
CCC(=O)O[C@H]1[C@@H](OC(=O)CC)[C@](C#N)(c2ccc3c(N)ncnn23)O[C@@H]1COP(=O)(N[C@@H](C)C(=O)OCC(CC)CC)Oc1cccc2ccccc12 (single isomer, unassigned) [Example 79b] | – | 45.6 | 6.33 | 27.8 | – | EC50 [4, 9]: 21.6 nM
CCC(CC)COC(=O)[C@H](C)NP(=O)(OC[C@H]1O[C@@](C#N)(c2ccc3c(=N)n(COP(=O)(O)O)cnn23)[C@H](O)[C@@H]1O)Oc1ccc(C(C)(C)C)cc1 (stereo partly drawn) [Example 179, 2-ethylbutyl ((4-(tert-butyl)phenoxy)(((2R,3S,4R,5R)-5-cyano-3,4-dihydroxy-5-(4-imino-3-((phosphonooxy)methyl)-3,4-dihydropyrrolo[2,1-f][1,2,4]triazin-7-yl)tetrahydrofuran-2-yl)methoxy)phosphoryl)-L-alaninate] | 850 | 16.8 | 7.84 | – | – | –
C[C@H](NP(=O)(OC[C@H]1O[C@@](C#N)(c2ccc3c(N)ncnn23)[C@H](O)[C@@H]1O)Oc1ccccc1)C(=O)OC1CC2(CCC2)C1 (single isomer, unassigned) [Example 44a] | 102 | 21.7 | 9.13 | – | – | –
CC(=O)O[C@H]1[C@@H](OC(C)=O)[C@](C#N)(c2ccc3c(N)ncnn23)O[C@@H]1COP(=O)(N[C@@H](C)C(=O)OC1CC2(CCC2)C1)Oc1ccccc1 (stereo partly drawn) [Example 45, (2R,3R,4R,5R)-2-(4-aminopyrrolo[2,1-f][1,2,4]triazin-7-yl)-2-cyano-5-((((((S)-1-oxo-1-(spiro[3.3]heptan-2-yloxy)propan-2-yl)amino)(phenoxy)phosphoryl)oxy)methyl)tetrahydrofuran-3,4-diyl Diacetate] | 105 | 19 | 5.29 | – | – | EC50 [3, 8]: 31.1 nM
CC(=O)O[C@H]1[C@@H](OC(C)=O)[C@](C#N)(c2ccc3c(N)ncnn23)O[C@@H]1COP(=O)(N[C@@H](C)C(=O)OC1CC2(CCC2)C1)Oc1ccccc1 (single isomer, unassigned) [Example 45a] | 72.8 | – | 7.29 | – | 22.7 | EC50 ([3]; Table 3): 60.4 nM
CC(=O)O[C@H]1[C@@H](OC(C)=O)[C@](C#N)(c2ccc3c(N)ncnn23)O[C@@H]1COP(=O)(N[C@@H](C)C(=O)OC1CC(C)(C)C1)Oc1ccc(C(C)(C)C)cc1 (single isomer, unassigned) [Example 96b] | – | – | – | 276 | 22.5 | EC50 [2, 11]: 25.1 nM; EC50 ([3]; Table 3): 27.9 nM
CC(=O)O[C@H]1[C@@H](OC(C)=O)[C@](C#N)(c2ccc3c(N)ncnn23)O[C@@H]1COP(=O)(N[C@@H](C)C(=O)OC1CC2(CCC2)C1)Oc1ccccc1 (single isomer, unassigned) [Example 45b] | – | – | – | 56.9 | 6.87 | EC50 [2, 11]: 10.3 nM; EC50 ([3]; Table 3): 23.9 nM
CC(=O)O[C@H]1[C@@H](OC(C)=O)[C@](C#N)(c2ccc3c(N)ncnn23)O[C@@H]1COP(=O)(N[C@@H](C)C(=O)OCC(C)C)Oc1ccc(C(C)(C)C)cc1 (stereo partly drawn) [Example 137, (2R,3R,4R,5R)-2-(4-aminopyrrolo[2,1-f][1,2,4]triazin-7-yl)-5-((((4-(tert-butyl)phenoxy)(((S)-1-isobutoxy-1-oxopropan-2-yl)amino)phosphoryl)oxy)methyl)-2-cyanotetrahydrofuran-3,4-diyl Diacetate] | 67.4 | 22.1 | 4.82 | – | – | EC50 [3, 8]: 31.5 nM
CC(C)C(=O)O[C@H]1[C@@H](OC(=O)C(C)C)[C@](C#N)(c2ccc3c(=N)n(COP(=O)(O)O)cnn23)O[C@@H]1COP(=O)(N[C@@H](C)C(=O)OC1CC2(CCC2)C1)Oc1cccc2ccccc12 (stereo partly drawn) [Example 178, (2R,3R,4R,5R)-2-cyano-2-(4-imino-3-((phosphonooxy)methyl)-3,4-dihydropyrrolo[2,1-f][1,2,4]triazin-7-yl)-5-((((naphthalen-1-yloxy)(((S)-1-oxo-1-(spiro[3.3]heptan-2-yloxy)propan-2-yl)amino)phosphoryl)oxy)methyl)tetrahydrofuran-3,4-diyl bis(2-methylpropanoate)] | 1370 | 85 | 12.2 | – | – | –
CC(=O)O[C@H]1[C@@H](OC(C)=O)[C@](C#N)(c2ccc3c(N)ncnn23)O[C@@H]1COP(=O)(N[C@@H](C)C(=O)OC1CC2(CCC2)C1)Oc1cccc2ccccc12 (single isomer, unassigned) [Example 83a] | 49 | 32.8 | 6.98 | – | – | EC50 [4, 9]: 21.9 nM
CC(C)C(=O)O[C@H]1[C@@H](OC(=O)C(C)C)[C@](C#N)(c2ccc3c(N)ncnn23)O[C@@H]1COP(=O)(N[C@@H](C)C(=O)OC1CC2(CCC2)C1)Oc1ccccc1 (stereo partly drawn) [Example 46, (2R,3R,4R,5R)-2-(4-aminopyrrolo[2,1-f][1,2,4]triazin-7-yl)-2-cyano-5-((((((S)-1-oxo-1-(spiro[3.3]heptan-2-yloxy)propan-2-yl)amino)(phenoxy)phosphoryl)oxy)methyl)tetrahydrofuran-3,4-diyl bis(2-methylpropanoate)] | 237 | 19.3 | 7.79 | – | – | EC50 [3, 8]: 52.3 nM
CC(C)C(=O)O[C@H]1[C@@H](OC(=O)C(C)C)[C@](C#N)(c2ccc3c(N)ncnn23)O[C@@H]1COP(=O)(N[C@@H](C)C(=O)OC1CC2(CCC2)C1)Oc1ccccc1 (single isomer, unassigned) [Example 46b] | – | – | – | 400 | 30 | EC50 [2, 11]: 6.63 nM
CC(=O)O[C@H]1[C@@H](OC(C)=O)[C@](C#N)(c2ccc3c(N)ncnn23)O[C@@H]1COP(=O)(N[C@@H](C)C(=O)OC1CC(C)(C)C1)Oc1ccc(C(C)(C)C)cc1 (single isomer, unassigned) [Example 96a] | 198 | 21.2 | – | – | – | EC50 [2, 11]: 8.53 nM; EC50 [3, 8]: 26.5 nM
CC(C)C(=O)O[C@H]1[C@@H](OC(=O)C(C)C)[C@](C#N)(c2ccc3c(N)ncnn23)O[C@@H]1COP(=O)(N[C@@H](C)C(=O)OC1CC2(CCC2)C1)Oc1cccc2ccccc12 (single isomer, unassigned) [Example 86a] | – | – | 7.93 | 109 | 88.2 | EC50 ([4]; human respiratory syncytial virus, HEp-2, 96 h, read-out: EC50 RSV HEP2 96, HEp-2 cells, RSV A2, MOI=4, 4 days, 96 well): 21.6 nM
CC(=O)O[C@H]1[C@@H](OC(C)=O)[C@](C#N)(c2ccc3c(N)ncnn23)O[C@@H]1COP(=O)(N[C@@H](C)C(=O)OCC1CC1)Oc1ccc(C(C)(C)C)cc1 (single isomer, unassigned) [Example 102a] | 155 | – | 8.46 | – | 8.68 | EC50 [3, 8]: 32 nM
CCC(CC)COC(=O)[C@H](C)NP(=O)(OC[C@H]1O[C@@](C#N)(c2ccc3c(N)ncnn23)[C@H](O)[C@@H]1O)Oc1ccc(C(C)(C)C)cc1 (single isomer, unassigned) [Example 13a] | 181 | – | 5.92 | – | – | EC50 ([1]; human respiratory syncytial virus, HEp-2, 72 h, read-out: EC50 RSVFluc-Hep2 384, HEp-2 cells, RSV-Luc5, MOI=0.5, 3 days, 384 well, One-Glo, Table 1): 52.1 nM; EC50 ([3]; Table 1): 91.2 nM
C[C@H](NP(=O)(OC[C@H]1O[C@@](C#N)(c2ccc3c(=N)n(COP(=O)(O)O)cnn23)[C@H](O)[C@@H]1O)Oc1cccc2ccccc12)C(=O)OC1CC2(CCC2)C1 (stereo partly drawn) [Example 177, spiro[3.3]heptan-2-yl ((((2R,3S,4R,5R)-5-cyano-3,4-dihydroxy-5-(4-imino-3-((phosphonooxy)methyl)-3,4-dihydropyrrolo[2,1-f][1,2,4]triazin-7-yl)tetrahydrofuran-2-yl)methoxy)(naphthalen-1-yloxy)phosphoryl)-L-alaninate] | 410 | 17 | 16 | – | – | –
C[C@H](NP(=O)(OC[C@H]1O[C@@](C#N)(c2ccc3c(N)ncnn23)[C@H](O)[C@@H]1O)Oc1ccccc1)C(=O)OC1CC2(CCC2)C1 (single isomer, unassigned) [Example 44b] | – | – | – | 130 | 22.9 | EC50 [2, 11]: 12.4 nM
CC(C)C(=O)O[C@H]1[C@@H](OC(=O)C(C)C)[C@](C#N)(c2ccc3c(N)ncnn23)O[C@@H]1COP(=O)(N[C@@H](C)C(=O)OC1CC2(CCC2)C1)Oc1ccccc1 (single isomer, unassigned) [Example 46a] | 249 | 30.2 | 5.59 | – | – | –
CC(C)C(=O)O[C@H]1[C@@H](OC(=O)C(C)C)[C@](C#N)(c2ccc3c(N)ncnn23)O[C@@H]1COP(=O)(N[C@@H](C)C(=O)OC1CC2(CCC2)C1)Oc1cccc2ccccc12 (single isomer, unassigned) [Example 86b] | – | – | – | 23.6 | 28.3 | EC50 [4, 9]: 20.9 nM; EC50 [2, 11]: 9.46 nM
